Test results reported in ChEMBL document CHEMBL1129197, “A rapid synthesis of some 5-amino- nucleosides and nucleotides as potential antiviral compounds” (Bioorg Med Chem Lett, 1996).

Tests used:
C8166 [1] = assay: Compound was evaluated for inhibitory activity against HIV-1 infected C8166 cells.; assay type: functional, cell-based; settings: Homo sapiens
C8166 [2] = assay: Concentration which reduces the viability of uninfected C8166 cells by 50%; assay type: functional; settings: Homo sapiens
[3] = Ratio of CC50 to EC50 against HIV-1/C8166 cells was evaluated; assay type: functional

Structure (SMILES)	EC50 (C8166 [1]) [µM]	CC50 (C8166 [2]) [mM]	Selectivity [3]
Cc1cn(C2CC(N=[N+]=[N-])C(CNP(=O)(OCC(Cl)(Cl)Cl)OCC(Cl)(Cl)Cl)O2)c(=O)[nH]c1=O (centres undefined)	30	0.1	3.3
Cc1cn(C2CC(N=[N+]=[N-])C(CN3C(=O)c4ccccc4C3=O)O2)c(=O)[nH]c1=O (centres undefined)	100	1	10
Cc1cn2c(nc1=O)OC1CC2OC1CN1C(=O)c2ccccc2C1=O (centres undefined)	400	> 1	>2.5
Cc1cn(C2CC(N=[N+]=[N-])C(CN)O2)c(=O)[nH]c1=O (centres undefined)	40	> 1	>25
Cc1cn([C@H]2C[C@H](N=[N+]=[N-])[C@@H](CO)O2)c(=O)[nH]c1=O [ZIDOVUDINE]	–	> 1	62500
